Each structure is given as a SMILES string. Structures can show the parent of a compound that is named as a salt.

For the experiment, the target named is T1, histamine 3 receptor (H3R) (Homo sapiens, UniProt Q9Y5N1).
T1 construct: expressed in transfected cells; host or cells: CHO cells (HR3-CHO cell line), membranes
T1 sequence (Q9Y5N1 whole entry): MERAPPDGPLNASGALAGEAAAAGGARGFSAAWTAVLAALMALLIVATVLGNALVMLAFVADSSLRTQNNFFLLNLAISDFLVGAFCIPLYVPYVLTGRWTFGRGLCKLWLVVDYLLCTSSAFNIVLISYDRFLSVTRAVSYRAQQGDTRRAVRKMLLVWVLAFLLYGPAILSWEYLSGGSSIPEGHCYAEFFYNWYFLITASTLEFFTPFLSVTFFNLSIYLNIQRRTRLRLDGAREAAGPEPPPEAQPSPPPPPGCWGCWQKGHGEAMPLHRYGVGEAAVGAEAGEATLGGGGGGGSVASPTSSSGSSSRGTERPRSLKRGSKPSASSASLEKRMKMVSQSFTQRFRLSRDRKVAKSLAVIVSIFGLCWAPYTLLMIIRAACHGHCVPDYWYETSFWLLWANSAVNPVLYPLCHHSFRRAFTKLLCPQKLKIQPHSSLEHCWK
Kind of experiment: Binding assay with 3H-(R)α-methylhistamine (competition binding, membranes of the human HR3-CHO cell line). The settings on record: competition against 3H(R)α-methylhistamine (1 nM), Ki calculated from IC50 by the Cheng-Prusoff equation. The procedure: Binding assay with ^3H-(R)α-methylhistamine
Saturation binding experiments were performed using HR3-CHO membranes prepared as described in Takahashi, K, Tokita, S., Kotani, H. (2003) J. Pharmacol. Exp. Therapeutics 307, 213-218.
An appropriate amount of membrane (60 to 80 μg protein/well) was incubated with increasing concentrations of ^3H(R)α-Methylhistamine di-hydrochloride (0.10 to 10 nM). Non specific binding was determined using a 200 fold excess of cold (R)α-Methylhistamine dihydrobromide (500 nM final concentration). The incubation was carried out at room temperature (in deep-well plates shaking for three hours). The final volume in each well was 250 μl. The incubation was followed by rapid filtration on GF/B filters (pre-soaked with 100 μl of 0.5% PEI in Tris 50 mM shaking at 200 rpm for two hours). The filtration was made using a cell-harvester and the filter plates were then washed five times with ice cold washing buffer containing 0.5 M NaCl. After harvesting, the plates were dried at 55° C. for 60 min, then we added scintillation fluid (Microscint 40, 40 microl in each well) and the amount of radioactivity on the filter was determined in Packard top-counter after shaking the plates for two hours at 200 rpm at room temperature.
Binding Buffer: 50 mM Tris-HCl pH 7.4 and 5 mM MgCl2×6H2O pH 7.4.
Washing Buffer: 50 mM Tris-HCl pH 7.4 and 5 mM MgCl2×6H2O and 0.5 M NaCl pH 7.4.
Indirect measurement of affinity of H3R inverse agonists: twelve increasing concentrations (ranging from 10 μM to 0.3 nM) of the selected compounds were always tested in competition binding experiments using membrane of the human HR3-CHO cell line. […]
All compounds were tested at a single concentration in duplicate. […] Ki's were calculated from IC50 based on Cheng-Prusoff equation (Cheng, Y, Prusoff, W H (1973) Biochem Pharmacol 22, 3099-3108): Ki=IC50/[1+D/Kd] wherein D is the concentration of the radioligand and Kd is the binding constant for the radioligand binding to the receptor under the conditions used in the competition experiment.
For `CC(C)CN1CCC(c2c[nH]c3cc(C(=O)N4CCN(C(C)C)CC4)ccc23)CC1` [Example 2, [3-(1-Isobutyl-piperidin-4-yl)-1H-indol-6-yl]-(4-isopropyl-piperazin-1-yl)-methanone; hydrochloride], the Ki was 24.3 nM. Next, `CN1CCCC1c1c[nH]c2cc(C(=O)N3CCN(C4CCCC4)CC3)ccc12` (stereo not drawn) [Example 35, (4-Cyclopentyl-piperazin-1-yl)-[3-(1-methyl-pyrrolidin-2-yl)-1H-indol-6-yl]-methanone]: 33.1 nM; `CC(C)CN1CC=C(c2cn(-c3ccc(F)cc3F)c3cc(C(=O)N4CCN(C(C)C)CC4)ccc23)CC1` [Example 54, [1-(2,4-Difluoro-phenyl)-3-(1-isobutyl-1,2,3,6-tetrahydro-pyridin-4-yl)-1H-indol-6-yl]-(4-isopropyl-piperazin-1-yl)-methanone]: 17.6 nM.

The values above are taken from patent US7514433B2, “1H-indole-6-yl-piperazin-1-yl-methanone derivatives” (Hoffmann-La Roche Inc., priority 2006, dated 2009).
